Like-named read-outs stand apart in the source and are kept apart here.
Tests used:
Assay type in all cases: cell-based
[1] = test system: helical strips of swine coronary artery (calcium-induced contraction); assay: In vitro coronary vasodilator activity: antagonism of contractions induced by calcium (1.5 mM); settings: Sus scrofa; for IC50: read-out: inhibitory concentration 50 (IC50), effect on Ca2+-induced contractions in swine coronary artery
Protocol: (§1) The coronary vasodilator activity of the synthesized products was determined in vitro from their capacity to antagonize the contractions induced by a) potassium (35 mM) b) calcium (1.5 mM) and c) serotonin (1 mM) in helical strips of swine coronary artery, using Nitroglycerine and Nicorandil as reference drugs (Table 1).

[2] = test system: helical strips of swine coronary artery (potassium-induced contraction); assay: In vitro coronary vasodilator activity: antagonism of contractions induced by potassium (35 mM); settings: Sus scrofa; for IC50: read-out: inhibitory concentration 50 (IC50), effect on K+-induced contractions in swine coronary artery; for inhibition at 100 µM: read-out: inhibition of K+-induced contractions in swine coronary artery
Protocol: as §1

[3] = test system: helical strips of swine coronary artery (serotonin-induced contraction); assay: In vitro coronary vasodilator activity: antagonism of contractions induced by serotonin (1 mM); settings: Sus scrofa; for IC50: read-out: inhibitory concentration 50 (IC50), effect on serotonin-induced contractions in swine coronary artery
Protocol: as §1

[4] = target: T1, β1-adrenergic (isolated guinea pig left auricle) (Cavia porcellus, UniProt H0W3H1); assay: In vitro β1-adrenergic blocking activity: antagonism of isoprenaline-induced positive inotropic response in electrically stimulated isolated left auricle
T1 construct: electrically stimulated isolated left auricle of the guinea pig; from tissue; host or cells: isolated left auricle of guinea pig
T1 sequence (H0W3H1 1-470): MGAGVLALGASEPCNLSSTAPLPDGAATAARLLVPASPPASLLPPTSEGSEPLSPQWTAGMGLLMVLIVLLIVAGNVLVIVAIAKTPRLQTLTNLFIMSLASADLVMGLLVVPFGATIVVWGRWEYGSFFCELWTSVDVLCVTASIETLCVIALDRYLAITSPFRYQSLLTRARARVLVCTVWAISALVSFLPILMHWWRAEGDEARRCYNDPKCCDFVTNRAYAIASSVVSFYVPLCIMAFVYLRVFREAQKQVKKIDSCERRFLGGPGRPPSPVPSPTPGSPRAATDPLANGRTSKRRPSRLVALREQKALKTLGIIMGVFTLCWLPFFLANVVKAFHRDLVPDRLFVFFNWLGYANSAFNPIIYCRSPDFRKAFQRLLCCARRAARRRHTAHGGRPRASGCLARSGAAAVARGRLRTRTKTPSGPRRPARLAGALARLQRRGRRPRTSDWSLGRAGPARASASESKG
Source text: In parallel tests, the effect of the said compounds on the positive isoprenaline-induced inotropic response in electrically stimulated isolated left auricle of the guinea pig, as evidence of β1 -adrenergic blocking activity (Table 2) was established.
BLOCKING ACTIVITY IN VITRO

[5] = electrically stimulated isolated guinea pig left auricle, read-out: inhibitory concentration 50 (IC50), antagonism of isoprenaline-induced positive inotropic response

Compound | IC50 ([2]; potassium 35 mM) [µM] | IC50 ([3]; serotonin 1 mM) [µM] | IC50 [4, 5] [µM] | also measured
O=[N+]([O-])OCC(CO[N+](=O)[O-])O[N+](=O)[O-] [Nitroglycerine, reference compound] | 1.3 | 1 |  | inhibition at 100 µM ([1]; at 0.1 mM, calcium 1.5 mM, read-out: inhibition of Ca2+-induced contractions in swine coronary artery): 50%
CC(C)NCC(O)COc1ccc(CC(N)=O)cc1 (stereo not drawn) [Atenolol, reference compound] |  |  |  | inhibition at 100 µM [2]: 25%; IC50 [4]: 0.7 µM
COCCc1ccc(OCC(O)CNC(C)C)cc1 (stereo not drawn) [Metoprolol, reference compound] |  |  |  | inhibition at 100 µM ([2]; at 0.1 mM, potassium 35 mM): 30%; inhibition at 100 µM ([3]; serotonin 1 mM): 20%
CC(C)NCC(O)COc1c(CC(=O)NCCO[N+](=O)[O-])ccc2ccccc12 (stereo not drawn) [1-(2-hydroxy-3-isopropylamino)propoxy-N-(2-nitroxyethyl)-2-naphthalene acetamide] | 40.7 |  |  | 
CC(C)NCC(O)COc1ccc(COCC(CO[N+](=O)[O-])O[N+](=O)[O-])cc1 (stereo not drawn) [1-isopropylamino-3-[4-(2,3-dinitroxy)-propoxymethyl]phenoxy-2-propanol] |  |  |  | IC50 [1]: 1.7 µM; IC50 [2]: 0.5 µM; IC50 [3]: 1.6 µM; IC50 [4]: 4.8 µM

Now from value to compound, other results behind:

IC50 ([2]; potassium 35 mM) [µM] | IC50 ([3]; serotonin 1 mM) [µM] | IC50 [4, 5] [µM] | Compound | also measured
7.1 | 6 | 0.7 | CC(C)NCC(O)COc1ccc(COCCCO[N+](=O)[O-])cc1 (stereo not drawn) [1-isopropylamino-3-[4-(3-nitroxy)propoxymethyl]phenoxy-2-propanol] | inhibition at 30 µM ([1]; at 30 μM, calcium 1.5 mM, read-out: inhibition of Ca2+-induced contractions in swine coronary artery): 50%
49.7 | 14.7 |  | O=C(NCCO[N+](=O)[O-])c1cccnc1 [Nicorandil, reference compound] | IC50 ([1]; calcium 1.5 mM): 169 µM
0.3 | 5.7 | 7.6 | CC(C)NCC(O)COc1ccc(CC(=O)OCCO[N+](=O)[O-])cc1 (stereo not drawn) [2-nitroxyethyl 4-[(2-hydroxy-3-isopropylamino)propoxy]phenyl acetate] | IC50 ([1]; calcium 1.5 mM): 13.1 µM
28.6 |  |  | CC(C)NCC(O)COc1ccc2ccccc2c1CC(=O)NCCO[N+](=O)[O-] (stereo not drawn) [2-(2-hydroxy-3-isopropylamino)propoxy-N-(2-nitroxyethyl)-1-naphthalene acetamide] | inhibition at 10 µM ([1]; at 10 μM, calcium 1.5 mM, read-out: inhibition of Ca2+-induced contractions in swine coronary artery): 20%; inhibition at 100 µM ([3]; serotonin 1 mM): 50%; inhibition at 100 µM ([4]; at 0.1 mM, electrically stimulated isolated guinea pig left auricle): 25%
3.4 | 13.3 | 0.6 | CC(C)NCC(O)COc1ccc(COCCO[N+](=O)[O-])cc1 (stereo not drawn) [1-isopropylamino-3-[4-(2-nitroxy)ethoxymethyl]phenoxy-2-propanol] | 
